The results in this text go back to patent US7446117B2, “Cox-2 inhibiting pyridine derivatives” (Glaxo Group Limited, priority 2002, dated 2008).

Where only a bound is given, the exact number is not on record here.

The target in this assay is T1, microsomal h-COX2 (Homo sapiens, UniProt P35354).
T1 construct: made in house; host or cells: baculovirus infected SF9 cells (microsomal preparation)
T1 sequence (P35354 18-604): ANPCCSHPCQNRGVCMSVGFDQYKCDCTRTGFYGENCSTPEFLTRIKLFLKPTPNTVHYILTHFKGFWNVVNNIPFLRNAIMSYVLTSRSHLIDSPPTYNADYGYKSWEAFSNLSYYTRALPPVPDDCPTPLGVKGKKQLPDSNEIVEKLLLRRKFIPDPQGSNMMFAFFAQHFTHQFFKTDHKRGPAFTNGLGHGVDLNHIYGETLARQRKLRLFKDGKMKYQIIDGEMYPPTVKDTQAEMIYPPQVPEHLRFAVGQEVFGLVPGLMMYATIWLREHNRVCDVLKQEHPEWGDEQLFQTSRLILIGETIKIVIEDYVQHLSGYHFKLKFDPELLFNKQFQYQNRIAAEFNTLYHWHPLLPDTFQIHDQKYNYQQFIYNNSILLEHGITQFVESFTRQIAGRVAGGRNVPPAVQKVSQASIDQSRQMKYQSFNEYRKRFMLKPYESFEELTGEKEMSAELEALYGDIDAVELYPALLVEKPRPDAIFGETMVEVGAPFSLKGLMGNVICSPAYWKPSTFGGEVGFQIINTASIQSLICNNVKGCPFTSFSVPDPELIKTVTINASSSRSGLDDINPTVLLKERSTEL
Description: Microsomal assay: inhibitory activity against microsomal h-COX2. Format: biochemical. The conditions noted are these: microsomal preparation from baculovirus infected SF9 cells; 1 hour incubation with compound; 0.1 μM arachidonic acid, 10 minutes; PGE2 by EIA; read-out: IC50 values for inhibition of COX-2. The procedure: Biological Data Microsomal Assay
Inhibitory activity against microsomal h-COX2 was assessed against a microsomal preparation from baculovirus infected SF9 cells. An aliquot of microsomal preparation was thawed slowly on ice and a 1/40,000 dilution prepared from it into the assay buffer (sterile water, degassed with argon containing 100 mM HEPES (pH 7.4), 10 mM EDTA (pH7.4), 1 mM phenol, 1 mM reduced glutathione, 20 mg/ml gelatin and 0.001 mM Hematin). Once diluted the enzyme solution was then sonicated for 5 seconds (Branson sonicator, setting 4, 1 cm tip) to ensure a homogeneous suspension. 155 μl enzyme solution was then added to each well of a 96-well microtitre plate containing either 5 μl test compound (40× required test concentration) or 5 μl DMSO for controls. Plates were then mixed and incubated at room temperature for 1 hour. Following the incubation period, 40 μl of 0.5 μM arachidonic acid was added to each well to give a final concentration of 0.1 μM. Plates were then mixed and incubated for exactly 10 minutes (room temperature) prior to addition of 25 μl 1M HCl (hydrochloric acid) to each well to stop the reaction. 25 μl of 1M NaOH (sodium hydroxide) was then added to each well to neutralise the solution prior to determination of PGE2 levels by enzyme immunoassay (EIA).
Regarding `COc1ccc(Nc2cc(C)cc(-c3ccc(S(C)(=O)=O)cn3)n2)cc1` [Example 70], the IC50 is ≤ 500 nM. Next, `CCC(CC)Nc1cc(C)cc(-c2ccc(S(C)(=O)=O)cc2)n1` [Example 74]: ≤ 500 nM; `CS(=O)(=O)c1ccc(-c2cccc(NCc3ccccc3)n2)cc1` [Example 75]: ≤ 500 nM; `Cc1cc(NCc2ncc[nH]2)nc(-c2ccc(S(C)(=O)=O)cc2)c1` [Example 76]: ≤ 500 nM. Next, `Cc1cc(NCc2nccn2C)nc(-c2ccc(S(C)(=O)=O)cc2)c1` [Example 80]: ≤ 500 nM. For `Cc1cc(NCc2c[nH]nc2C)nc(-c2ccc(S(C)(=O)=O)cc2)c1` [Example 81], the IC50 was ≤ 500 nM. The figure for `Cc1cc(NCc2ccn(C)n2)nc(-c2ccc(S(C)(=O)=O)cc2)c1` [Example 82] is ≤ 500 nM. With `Cc1cc(NCc2cnn(C)c2)nc(-c2ccc(S(C)(=O)=O)cc2)c1` [Example 83, N-[(1-methyl-1H-pyrazol-4-yl)methyl]-4-methyl-6-[4-(methylsulfonyl)phenyl]pyridine-2-amine], the IC50 was ≤ 500 nM. The figure for `CCc1cc(NCc2ncc[nH]2)nc(-c2ccc(S(C)(=O)=O)cc2)c1` [Example 84] is ≤ 500 nM; for `Cc1cc(OCc2cc(C)n[nH]2)nc(-c2ccc(S(C)(=O)=O)cc2)c1` [Example 85] it is ≤ 500 nM; for `Cc1cc(OCc2ccnn2C)nc(-c2ccc(S(C)(=O)=O)cc2)c1` [Example 86] it is ≤ 500 nM.

In the case of `Cc1cc(NCc2ncnn2C)nc(-c2ccc(S(C)(=O)=O)cc2)c1` [Example 87], the IC50 was ≤ 500 nM. The figure for `Cc1cc(OCc2cc(C)on2)nc(-c2ccc(S(C)(=O)=O)cc2)c1` [Example 88] is ≤ 500 nM; for `CCc1cc(NC2CCOCC2)nc(-c2ccc(S(C)(=O)=O)cc2)c1` [Example 89, 4-Ethyl-6-[4-(methylsulfonyl)phenyl]-N-(tetrahydro-2H-pyran-4-yl)pyridine-2-amine] it is ≤ 500 nM.

On to `CS(=O)(=O)c1ccc(-c2cc(CF)cc(NC3CCCCC3)n2)cc1` [Example 92], for which the IC50 is ≤ 500 nM. Next, `CCc1cc(NCc2ccccc2)nc(-c2ccc(S(C)(=O)=O)cc2)c1` [Example 93]: ≤ 500 nM.

In the case of `Cc1cc(N[C@@H](C)c2ccccc2)nc(-c2ccc(S(C)(=O)=O)cc2)c1` [Example 94], the IC50 is ≤ 500 nM. The figure for `Cc1cc(NCc2ccccc2C)nc(-c2ccc(S(C)(=O)=O)cc2)c1` [Example 95] is ≤ 500 nM. Next, `CCc1cc(OCc2ccccc2)nc(-c2ccc(S(C)(=O)=O)cc2)c1` [Example 96]: ≤ 500 nM; `Cc1cc(NCc2ccc(C)nc2)nc(-c2ccc(S(C)(=O)=O)cc2)c1` [Example 98]: ≤ 500 nM. Next, `CCc1cc(Nc2ccc(C)nc2)nc(-c2ccc(S(C)(=O)=O)cc2)c1` [Example 99]: ≤ 500 nM; `CCc1cc(OCc2cccnc2)nc(-c2ccc(S(C)(=O)=O)cc2)c1` [Example 101]: ≤ 500 nM. Turning to `CCc1cc(NCc2cnccn2)nc(-c2ccc(S(C)(=O)=O)cc2)c1` [Example 103], the half-maximal inhibitory concentration (IC50) was ≤ 500 nM.

In the case of `CS(=O)(=O)c1ccc(-c2cc(CF)cc(NCc3ccccc3)n2)cc1` [Example 104], the IC50 was ≤ 500 nM.

In the case of `CCc1cc(Nc2ccc(F)cc2)nc(-c2ccc(S(C)(=O)=O)cc2)c1` [Example 105], the IC50 was ≤ 500 nM. As for `CCc1cc(NCc2nccn2C)nc(-c2ccc(S(C)(=O)=O)cc2)c1` [Example 108], the IC50 is ≤ 500 nM. The figure for `CCc1cc(NCc2[nH]cnc2C)nc(-c2ccc(S(C)(=O)=O)cc2)c1` [Example 109] is ≤ 500 nM; for `Cc1cc(-c2ccc(S(C)(=O)=O)cc2)nc(N(C)Cc2nccn2C)c1` [Example 110] it is ≤ 500 nM; for `CCn1ccnc1CNc1cc(C)cc(-c2ccc(S(C)(=O)=O)cc2)n1` [Example 112] it is ≤ 500 nM. Next, `Cc1cc(NCc2cn(C)nc2C)nc(-c2ccc(S(C)(=O)=O)cc2)c1` [Example 113]: ≤ 500 nM.

As to `Cc1cc(NCc2cnn(C)c2C)nc(-c2ccc(S(C)(=O)=O)cc2)c1` [Example 114], the half-maximal inhibitory concentration (IC50) was ≤ 500 nM. The figure for `CCc1cc(NCc2cnn(C)c2)nc(-c2ccc(S(C)(=O)=O)cc2)c1` [Example 115] is ≤ 500 nM; for `CCc1cc(OCc2ccnn2C)nc(-c2ccc(S(C)(=O)=O)cc2)c1` [Example 116] it is ≤ 500 nM.

Regarding `CCc1cc(NCc2cccs2)nc(-c2ccc(S(C)(=O)=O)cc2)c1` [Example 120], the IC50 was ≤ 500 nM.

For `Cc1cc(NCc2cc(C)ns2)nc(-c2ccc(S(C)(=O)=O)cc2)c1` [Example 123], the IC50 was ≤ 500 nM. The figure for `Cc1cc(NCc2nc(C)cs2)nc(-c2ccc(S(C)(=O)=O)cc2)c1` [Example 124] is ≤ 500 nM. Next, `Cc1cc(NCc2csnc2C)nc(-c2ccc(S(C)(=O)=O)cc2)c1` [Example 125]: ≤ 500 nM. Next, `Cc1cc(NCc2cnn(CF)c2)nc(-c2ccc(S(C)(=O)=O)cc2)c1` [Example 126]: ≤ 500 nM. Regarding `CCN(Cc1ccccc1)c1cc(C)cc(-c2ccc(S(C)(=O)=O)cc2)n1` [Example 128], the IC50 is ≤ 500 nM. The figure for `CCc1cc(NCc2ccc(C)cc2)nc(-c2ccc(S(C)(=O)=O)cc2)c1` [Example 129] is ≤ 500 nM. The figure for `Cc1cc(-c2ccc(S(C)(=O)=O)cc2)nc(NCc2cnn(C)c2)c1C#N` [Example 131] is ≤ 500 nM; for `CCc1cc(OCc2cccnc2C)nc(-c2ccc(S(C)(=O)=O)cc2)c1` [Example 133] it is ≤ 500 nM; for `CCc1cc(OCc2ccc(C)nc2)nc(-c2ccc(S(C)(=O)=O)cc2)c1` [Example 134] it is ≤ 500 nM. In the case of `CCc1cc(OCc2cccc(C)n2)nc(-c2ccc(S(C)(=O)=O)cc2)c1` [Example 135], the concentration for half-maximal inhibition (IC50) is ≤ 500 nM.

Turning to `CCc1cc(NCc2cnn(C)c2C)nc(-c2ccc(S(C)(=O)=O)cc2)c1` [Example 139], the IC50 was ≤ 500 nM. Next, `CCc1cc(NCc2nc(C)cs2)nc(-c2ccc(S(C)(=O)=O)cc2)c1` [Example 142]: ≤ 500 nM; `CCc1cc(-c2ccc(S(C)(=O)=O)cc2)nc(NCc2cnn(C)c2)c1F` [Example 143]: ≤ 500 nM; `CCc1cc(NCc2cnn(CF)c2)nc(-c2ccc(S(C)(=O)=O)cc2)c1` [Example 144]: ≤ 500 nM.

Regarding `Cc1cc(-c2ccc(S(C)(=O)=O)cc2)nc(NCc2cnn(C)c2)c1Cl` [Example 147], the half-inhibitory concentration (IC50) is ≤ 500 nM. The figure for `CCc1cc(-c2ccc(S(C)(=O)=O)cc2)nc(NCc2ccccc2)c1C#N` [Example 148] is ≤ 500 nM; for `Cc1ccc(COc2nc(-c3ccc(S(C)(=O)=O)cc3)cc(C)c2C#N)cn1` [Example 149] it is ≤ 500 nM.

Regarding `CS(=O)(=O)c1ccc(-c2cc(C(F)(F)F)cc(Oc3cccnc3)n2)cc1` [Example 150], the concentration for half-maximal inhibition (IC50) is ≤ 500 nM. The figure for `CC(C)(C)c1cc(NCc2ccccc2)nc(-c2ccc(S(C)(=O)=O)cc2)c1` [Example 151] is ≤ 500 nM; for `CS(=O)(=O)c1ccc(-c2cc(C(F)(F)F)cc(NCc3ncc[nH]3)n2)cc1` [Example 153] it is ≤ 500 nM; for `CCOc1ccc(Nc2cc(CC)cc(-c3ccc(S(C)(=O)=O)cc3)n2)cc1` [Example 154] it is ≤ 500 nM.
